Patent publication US6924302B2, “Substituted triazole diamine derivatives as kinase inhibitors” (Ortho McNeil Pharmaceutical, Inc., priority 2000, dated 2005)

How the values were obtained:
[1] = system: HeLa cervical adenocarcinoma; assay: Inhibition of Cell Proliferation (14C-thymidine incorporation), HeLa; type: cell-based; settings: Homo sapiens, HeLa cell line
How it was run: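 3000-8000 cells/well, 24 h preculture; cmpd in DMSO 24 h; + 0.2 uCi/well methyl 14C-thymidine (56 mCi/mmol) 24 h with drug; 37° C, 5% CO2; PBS wash x2; scintillation count of label incorporated; DMSO controls.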

[2] = biological target: T1, PDGF-R (platelet derived growth factor receptor) beta subunit kinase domain (Homo sapiens, UniProt P09619); assay: Kinase Selectivity Assay PDGF-R; type: biochemical; settings: Kinase Selectivity, Tables 2a-2k; read-out: PDGF-R kinase IC50
T1 construct: nucleotides 1874-3507 of the human PDGF-R beta subunit kinase domain; polyhistidine (N)
How it was run: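 Inhibition was measured as reduced ^33P-γ-ATP labelling of a biotinylated peptide substrate immobilized on streptavidin plates after one hour at 30° C.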

T1 sequence (P09619 564-1106): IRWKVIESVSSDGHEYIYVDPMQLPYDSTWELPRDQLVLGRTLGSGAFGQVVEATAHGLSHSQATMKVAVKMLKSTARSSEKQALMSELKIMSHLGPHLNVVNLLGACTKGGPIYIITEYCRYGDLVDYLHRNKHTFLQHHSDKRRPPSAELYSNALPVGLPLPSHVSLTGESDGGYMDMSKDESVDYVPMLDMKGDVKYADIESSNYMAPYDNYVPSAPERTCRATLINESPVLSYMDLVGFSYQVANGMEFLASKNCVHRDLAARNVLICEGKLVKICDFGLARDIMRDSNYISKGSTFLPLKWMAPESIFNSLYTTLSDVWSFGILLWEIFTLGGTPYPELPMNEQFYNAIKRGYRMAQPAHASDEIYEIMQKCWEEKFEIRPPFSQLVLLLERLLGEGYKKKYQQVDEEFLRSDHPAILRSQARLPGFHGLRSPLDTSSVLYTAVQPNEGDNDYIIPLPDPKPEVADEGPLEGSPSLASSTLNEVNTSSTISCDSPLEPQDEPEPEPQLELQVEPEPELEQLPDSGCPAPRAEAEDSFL

| Structure (SMILES) | IC50 [1] [nM] | IC50 [2] [nM] |
| --- | --- | --- |
| Nc1nc(Nc2ccc(S(N)(=O)=O)cc2)nn1C(=O)c1c(F)cccc1F [Cpd 1, 4-[[5-amino-1-(2,6-difluorobenzoyl)-1H-1,2,4-triazol-3-yl]amino]-benzenesulfonamide] | 284 |  |
| Nc1nc(Nc2ccc(S(N)(=O)=O)cc2)nn1C(=O)c1cccs1 [Cpd 14, 4-[[5-amino-1-(2-thienylcarbonyl)-1H-1,2,4-triazol-3-yl]amino]-benzenesulfonamide] | 550 | 189 |
| Nc1nc(Nc2ccc(S(N)(=O)=O)cc2)nn1C(=O)c1sccc1F [Cpd 16, 4-[[5-amino-1-[(3-fluoro-2-thienyl)carbonyl]-1H-1,2,4-triazol-3-yl]amino]-benzenesulfonamide] | 263 | 100 |
| Nc1nc(Nc2ccc(S(N)(=O)=O)cc2)nn1C(=O)c1sccc1Cl [Cpd 17, 4-[[5-amino-1-[(3-chloro-2-thienyl)carbonyl]-1H-1,2,4-triazol-3-yl]amino]-benzenesulfonamide] | 215 | 81 |
| Nc1nc(Nc2ccc(S(=O)(=O)N3CCCCC3)cc2)nn1C(=O)c1cccs1 [Cpd 23, N^3-[4-(1-piperidinylsulfonyl)phenyl]-1-(2-thienylcarbonyl)-1H-1,2,4-triazole-3,5-diamine] | 1180 | 629 |
| Nc1nc(Nc2ccc(S(N)(=O)=O)cc2)nn1C(=O)c1ccsc1 [Cpd 30, 4-[[5-amino-1-(3-thienylcarbonyl)-1H-1,2,4-triazol-3-yl]amino]-benzenesulfonamide] | 215 | 392 |
| CCc1ccc(C(=O)n2nc(Nc3ccc(S(N)(=O)=O)cc3)nc2N)s1 [Cpd 32, 4-[[5-amino-1-[(5-ethyl-2-thienyl)carbonyl]-1H-1,2,4-triazol-3-yl]amino]-benzenesulfonamide] | 71 | 74 |
| Cc1nc(C)c(C(=O)n2nc(Nc3ccc(S(N)(=O)=O)cc3)nc2N)s1 [Cpd 34, 4-[[5-amino-1-[(2,4-dimethyl-5-thiazolyl)carbonyl]-1H-1,2,4-triazol-3-yl]amino]-benzenesulfonamide] | 707 | 292 |
| Nc1nc(Nc2ccc(S(N)(=O)=O)cc2)nn1C(=O)c1sccc1Br [Cpd 35, 4-[[5-amino-1-[(3-bromo-2-thienyl)carbonyl]-1H-1,2,4-triazol-3-yl]amino]-benzenesulfonamide] | 663 |  |
| Nc1nc(Nc2ccc(S(N)(=O)=O)cc2)nn1C(=O)C1CCCC1 [Cpd 38, 4-[[5-amino-1-(cyclopentylcarbonyl)-1H-1,2,4-triazol-3-yl]amino]-benzenesulfonamide] | 4560 | 6370 |
| Nc1nc(Nc2ccc(S(N)(=O)=O)cc2)nn1C(=O)C1CCCCC1 [Cpd 39, 4-[[5-amino-1-(cyclohexylcarbonyl)-1H-1,2,4-triazol-3-yl]amino]-benzenesulfonamide] | 270 | 3980 |
| CC(C)(C)c1ccc(C(=O)n2nc(Nc3ccc(S(N)(=O)=O)cc3)nc2N)s1 [Cpd 51, 4-[[5-amino-1-[[5-(1,1-dimethylethyl)-2-thienyl]carbonyl]-1H-1,2,4-triazol-3-yl]amino]-benzenesulfonamide] | 220 | 199 |
| Cc1ccccc1C(=O)n1nc(Nc2ccc(S(N)(=O)=O)cc2)nc1N [Cpd 57, 4-[[5-amino-1-(2-methylbenzoyl)-1H-1,2,4-triazol-3-yl]amino]-benzenesulfonamide] | 339 | 4190 |
| CC(O)c1ccc(F)c(C(=O)n2nc(Nc3ccc(S(N)(=O)=O)cc3)nc2N)c1F (centres unmarked) [Cpd 58, 4-[[5-amino-1-[2,6-difluoro-3-(1-hydroxyethyl)benzoyl]-1H-1,2,4-triazol-3-yl]amino]-benzenesulfonamide] | 186 | 8530 |
| Cc1ccc(F)c(C(=O)n2nc(Nc3ccc(S(N)(=O)=O)cc3)nc2N)c1Cl [Cpd 69, 4-[[5-amino-1-(2-chloro-6-fluoro-3-methylbenzoyl)-1H-1,2,4-triazol-3-yl]amino]-benzenesulfonamide] | 218 | 100 |
| Nc1nc(Nc2ccc(S(N)(=O)=O)cc2)nn1C(=O)c1c(F)cccc1Cl [Cpd 70, 4-[[5-amino-1-(2-chloro-6-fluorobenzoyl)-1H-1,2,4-triazol-3-yl]amino]-benzenesulfonamide] | 196 | 16200 |
| CN1CCN(c2ccc(Nc3nc(N)n(C(=O)c4c(F)cccc4F)n3)cc2)CC1 [Cpd 71, 1-(2,6-difluorobenzoyl)-N^3-[4-(4-methyl-1-piperazinyl)phenyl]-1H-1,2,4-triazole-3,5-diamine] | 1920 | 27000 |
| CNS(=O)(=O)c1ccc(Nc2nc(N)n(C(=O)c3c(F)cccc3F)n2)cc1 [Cpd 80, 4-[[5-amino-1-(2,6-difluorobenzoyl)-1H-1,2,4-triazol-3-yl]amino]-N-methyl-benzenesulfonamide] | 880 |  |
| CNS(=O)(=O)c1ccc(Nc2nc(N)n(C(=O)c3c(F)ccc(C)c3F)n2)cc1 [Cpd 81, 4-[[5-amino-1-(2,6-difluoro-3-methylbenzoyl)-1H-1,2,4-triazol-3-yl]amino]-N-methyl-benzenesulfonamide] | 189 | 7760 |
| CNS(=O)(=O)c1ccc(Nc2nc(N)n(C(=O)c3sccc3C)n2)cc1 [Cpd 82, 4-[[5-amino-1-[(3-methyl-2-thienyl)carbonyl]-1H-1,2,4-triazol-3-yl]amino]-N-methyl-benzenesulfonamide] | 245 | 42 |
| CCc1ccc(C(=O)n2nc(Nc3ccc(S(=O)(=O)NC)cc3)nc2N)s1 [Cpd 84, 4-[[5-amino-1-[(5-ethyl-2-thienyl)carbonyl]-1H-1,2,4-triazol-3-yl]amino]-N-methyl-benzenesulfonamide] | 142 | 280 |
| CCc1ccc(C(=O)n2nc(Nc3ccc(S(=O)(=O)NCCN(C)C)cc3)nc2N)s1 [Cpd 103, 4-[[5-amino-1-[(5-ethyl-2-thienyl)carbonyl]-1H-1,2,4-triazol-3-yl]amino]-N-[2-(dimethylamino)ethyl]-benzenesulfonamide] | 62 | 702 |
| Cc1ccsc1C(=O)n1nc(Nc2ccc(S(=O)(=O)NCCN(C)C)cc2)nc1N [Cpd 104, 4-[[5-amino-1-[(3-methyl-2-thienyl)carbonyl]-1H-1,2,4-triazol-3-yl]amino]-N-[2-(dimethylamino)ethyl]-benzenesulfonamide] | 186 | 192 |
| Cc1cc(C)c(C(=O)n2nc(Nc3ccc(NS(C)(=O)=O)cc3)nc2N)s1 [Cpd 108, N-[4-[[5-amino-1-[(3,5-dimethyl-2-thienyl)carbonyl]-1H-1,2,4-triazol-3-5 yl]amino]phenyl]-methanesulfonamide] |  | 217 |
| Cc1ccsc1C(=O)n1nc(Nc2ccc(N3CCNC3=O)cc2)nc1N [Cpd 113, 1-[4-[[5-amino-1-[(3-methyl-2-thienyl)carbonyl]-1H-1,2,4-triazol-3-yl]amino]phenyl]-2-imidazolidinone] | 242 | 370 |
| Cc1ccsc1C(=O)n1nc(Nc2ccc(N3CCCS3(=O)=O)cc2)nc1N [Cpd 116, N^3-[4-(1,1-dioxido-2-isothiazolidinyl)phenyl]-1-[(3-methyl-2-thienyl)carbonyl]-1H-1,2,4-triazole-3,5-diamine] | 380 | 302 |
| Nc1nc(Nc2ccc(N3CCCS3(=O)=O)cc2)nn1C(=O)c1c(F)cccc1F [Cpd 117] | 2060 | > 100000 |
| Nc1nc(Nc2ccc(S(=O)(=O)Nc3ccccn3)cc2)nn1C(=O)c1c(F)cccc1F [Cpd 118, 4-[[5-amino-1-(2,6-difluorobenzoyl)-1H-1,2,4-triazol-3-yl]amino]-N-(2-pyridinyl)-benzenesulfonamide] | 1940 | > 100000 |
| Cc1cc(C)c(C(=O)n2nc(Nc3ccc(S(=O)(=O)Nc4ccccn4)cc3)nc2N)s1 [Cpd 120] | 978 | 822 |
| Cc1ccc(F)c(C(=O)n2nc(N)nc2Nc2ccc(S(N)(=O)=O)cc2)c1F [Cpd 123, 4-[[3-amino-1-(2,6-difluoro-3-methylbenzoyl)-1H-1,2,4-triazol-5-yl]amino]-benzenesulfonamide] | 28500 | > 100000 |
